Source: paper PMC11203657, “Glyphosate-Induced Phosphonatase Operons in Soil Bacteria of the Genus Achromobacter” (International Journal of Molecular Sciences, 2024)
Read-outs that look alike come from different tables or passages of the source.

Legend:
PhnX19-I = target: T1, PhnX19-I (Achromobacter insolitus, UniProt Z9I4E4M620); assay: inhibition kinetics, ADH/NADH-coupled PAA hydrolysis, vector method; type: biochemical; conditions: substrate PAA 0.1-5 mM, pH 7.5, 10 mM MgCl2, 25 °C
T1 construct: native, purified from wild-type strain, untagged; homodimer; MALDI match to OAD13647.1
T1 sequence (Z9I4E4M620 1-273): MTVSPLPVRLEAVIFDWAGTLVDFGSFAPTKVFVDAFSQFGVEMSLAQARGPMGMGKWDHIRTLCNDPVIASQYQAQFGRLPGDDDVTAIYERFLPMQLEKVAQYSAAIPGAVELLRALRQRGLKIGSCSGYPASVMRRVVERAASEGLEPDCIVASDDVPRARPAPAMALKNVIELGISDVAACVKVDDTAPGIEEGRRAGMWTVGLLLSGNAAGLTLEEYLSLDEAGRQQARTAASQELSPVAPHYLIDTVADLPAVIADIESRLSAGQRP
Text: inhibition kinetics, ADH/NADH-coupled PAA hydrolysis, vector method on PhnX19-I

PhnX19-II = target: T2, PhnX19-II (Achromobacter insolitus, UniProt Z9I4E4M620); assay: as above; type: biochemical; conditions: substrate PAA 0.1-5 mM, pH 7.5, 10 mM MgCl2, 25 °C
T2 construct: native, purified from wild-type strain, untagged; homodimer; MALDI match to OAD13647.1
T2 sequence (Z9I4E4M620 1-273): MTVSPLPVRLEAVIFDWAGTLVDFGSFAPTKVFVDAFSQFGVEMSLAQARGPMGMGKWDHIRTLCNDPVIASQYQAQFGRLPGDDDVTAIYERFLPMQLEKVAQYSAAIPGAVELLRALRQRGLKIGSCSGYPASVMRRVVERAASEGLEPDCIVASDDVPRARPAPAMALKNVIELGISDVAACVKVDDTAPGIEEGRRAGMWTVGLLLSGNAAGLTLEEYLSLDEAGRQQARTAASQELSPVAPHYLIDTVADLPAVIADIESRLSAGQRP
Text: inhibition kinetics, ADH/NADH-coupled PAA hydrolysis, vector method on PhnX19-II

PhnX16 [1] = target: T3, PhnX16 (Achromobacter aegrifaciens, UniProt A0ABU2D8D6); assay: activation kinetics, ADH/NADH-coupled PAA hydrolysis, vector method; type: biochemical; conditions: substrate PAA 0.1-5 mM, pH 7.5, 10 mM MgCl2, 25 °C; Ka is an activation constant; competitive-type activator
T3 construct: gene phnX; native, purified from wild-type strain, untagged; subunit ~31 kDa, homodimer ~60-65 kDa
T3 sequence (A0ABU2D8D6 4-276): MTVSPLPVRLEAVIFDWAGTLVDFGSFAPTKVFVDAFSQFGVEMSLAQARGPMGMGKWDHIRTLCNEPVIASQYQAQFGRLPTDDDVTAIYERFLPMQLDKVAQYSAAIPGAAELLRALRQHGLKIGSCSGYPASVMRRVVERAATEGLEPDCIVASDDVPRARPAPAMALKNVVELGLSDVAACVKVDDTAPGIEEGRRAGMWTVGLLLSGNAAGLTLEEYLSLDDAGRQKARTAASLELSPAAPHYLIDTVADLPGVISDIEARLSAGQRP
Text: activation kinetics, ADH/NADH-coupled PAA hydrolysis, vector method on PhnX16

PhnX16 [2] = target: T3, PhnX16; assay: inhibition kinetics, ADH/NADH-coupled PAA hydrolysis, vector method; type: biochemical
Text: inhibition kinetics, ADH/NADH-coupled PAA hydrolysis, vector method on PhnX16

purified protein = substrate: O=CCP(=O)(O)O; assay: purified protein; type: biochemical, Achromobacter aegrifaciens; conditions: pH 7.5, 50 mM Tris-HCl, 10 mM MgCl2, 0.1 mM DTT, 25 °C
[3] = noncompetitive in table, uncompetitive in text, read-out: Effectors / 2,4-DNPA
[4] = noncompetitive inhibitor, read-out: Effectors / BPA
[5] = uncompetitive inhibitor, read-out: Effectors / GP
[6] = competitive inhibitor, read-out: Effectors / 2-AEP

## CC(=O)Oc1ccc([N+](=O)[O-])cc1[N+](=O)[O-] [2,4-DNPA, 2,4-dinitrophenyl acetate]
PhnX19-I; [3]
  Ki: 730 µM
PhnX19-II; [3]
  Ki: 760 µM

## NCP(=O)(O)O [AMPA, aminomethylphosphonic acid]
PhnX16 [1]
  Ka (activation constant): 43.5 mM

## CCCCP(=O)(O)O [BPA, butylphosphonic acid]
PhnX19-I; [4]
  Ki: 390 µM
PhnX16 [2]
  Ki: 750 µM
PhnX19-II; [4]
  Ki: 300 µM

## O=C(O)CNCP(=O)(O)O [GP, N-phosphonomethylglycine]
PhnX19-I; [5]
  Ki: 4000 µM
PhnX16 [2]; read-out: Effectors / GP
  Ki: 11600 µM
PhnX19-II; [5]
  Ki: 5400 µM

## NCCP(=O)(O)O [compound 1, 2-aminoethylphosphonic acid]
PhnX19-I; [6]
  Ki: 2200 µM
PhnX19-II; [6]
  Ki: 2480 µM
PhnX16 [1]
  Effectors / 2-AEP: 21 mM

B1: PhnX16 (Achromobacter aegrifaciens) (protein)
chain: MTVSPLPVRLEAVIFDWAGTLVDFGSFAPTKVFVDAFSQFGVEMSLAQARGPMGMGKWDHIRTLCNEPVIASQYQAQFGRLPTDDDVTAIYERFLPMQLDKVAQYSAAIPGAAELLRALRQHGLKIGSCSGYPASVMRRVVERAATEGLEPDCIVASDDVPRARPAPAMALKNVVELGLSDVAACVKVDDTAPGIEEGRRAGMWTVGLLLSGNAAGLTLEEYLSLDDAGRQKARTAASLELSPAAPHYLIDTVADLPGVISDIEARLSAGQRP
notes: native, purified from wild-type strain, untagged; subunit ~31 kDa, homodimer ~60-65 kDa
Purified protein
  Km: 889 ± 138 µM
  Vmax: 1.2 µmol/min/mg
  kcat: 0.6 ± 0.1 s⁻¹
  kcat/Km: 670 M⁻¹ s⁻¹

B2: PhnX16R (Achromobacter aegrifaciens) (protein)
chain: MTVSPLPVRLEAVIFDWAGTLVDFGSFAPTKVFVDAFSQFGVEMSLAQARGPMGMGKWDHIRTLCNEPVIASQYQAQFGRLPTDDDVTAIYERFLPMQLDKVAQYSAAIPGAAELLRALRQHGLKIGSCSGYPASVMRRVVERAATEGLEPDCIVASDDVPRARPAPAMALKNVVELGLSDVAACVKVDDTAPGIEEGRRAGMWTVGLLLSGNAAGLTLEEYLSLDDAGRQKARTAASLELSPAAPHYLIDTVADLPGVISDIEARLSAGQRP
notes: recombinant full length, C-terminal His6 tag kept, pET-22b without pelB, E. coli BL21(DE3); homodimer
Purified protein
  Km: 641 ± 23 µM
  Vmax: 1.12 µmol/min/mg
  kcat: 0.56 ± 0.05 s⁻¹
  kcat/Km: 875 M⁻¹ s⁻¹
